Experimental findings from paper PMC5856786, “A DHODH inhibitor increases p53 synthesis and enhances tumor cell killing by p53 degradation blockage” (Nature Communications, 2018) are described below.

Structures can show the parent of a compound that is named as a salt.

The first assay deals with recombinant human DHODH (Homo sapiens, UniProt Q02127). In words: Endpoint DHODH enzyme assay (coenzyme Q10, DCIP). It is filed as biochemical. More on the design: purchased Prospecbio ENZ-642. As to conditions: compound at 10 µM; Supplementary Table 5, 20,000 compound library. How it is done: In Supplementary Tables 5 and 6, endpoint assays were performed with 10 nM recombinant human DHODH (#ENZ-642, Prospecbio). The reaction mixture consisted of 624.6 µM DL-dihydroorotic acid, 66.4 µM coenzyme Q10, 66.4 µM 2,6-dichlorophenolindophenol sodium salt (DCIP) (all reagents purchased from Sigma-Aldrich) in enzyme buffer (50 mM Tris-HCl, pH 8.0, 0.1% Triton X-100, 150 mM KCl). Loss in absorbance by DCIP was measured at 595 nm after incubation at RT for 60 min.
recombinant human DHODH, sequence (Q02127 31-395 limits assumed): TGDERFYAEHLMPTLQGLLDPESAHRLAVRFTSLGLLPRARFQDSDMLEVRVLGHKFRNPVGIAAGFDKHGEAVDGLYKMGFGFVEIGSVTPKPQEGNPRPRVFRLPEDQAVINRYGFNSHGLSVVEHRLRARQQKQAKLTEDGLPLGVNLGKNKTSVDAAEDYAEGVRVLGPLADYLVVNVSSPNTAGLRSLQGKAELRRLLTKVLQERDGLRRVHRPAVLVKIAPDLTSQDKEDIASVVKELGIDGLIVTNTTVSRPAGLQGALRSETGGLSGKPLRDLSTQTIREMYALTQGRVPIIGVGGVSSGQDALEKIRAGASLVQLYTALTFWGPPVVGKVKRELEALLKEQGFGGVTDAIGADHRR
For the compound `Cc1cc(O)ccc1NC(=O)c1ccc(-c2ccccc2)cc1` [compound 7782544, N-(4-hydroxy-2-methylphenyl)-4-biphenylcarboxamide], the remaining activity (commonly the signal under treatment as a percentage of the control signal) at 10 µM was found to be 73.5%.
The same measure, in the same setting: for `CCOc1cc(C=Cc2ccc3cccc(OC(=O)CC)c3n2)ccc1OC(=O)CC` [compound 7706999, 2-{2-[3-ethoxy-4-(propionyloxy)phenyl]vinyl}-8-quinolinyl propionate] the value was 98.2%; for `Cc1ccccc1NC(=S)NC(=O)c1cccc2c(Br)cccc12` [compound 6592864, 5-bromo-N-{[(2-methylphenyl)amino]carbonothioyl}-1-naphthamide], 72.2%.
Same read-out and setting: the result for `Cc1cc(=O)oc2cc(NC(=S)N3c4ccccc4CC3C)ccc12` (stereo not drawn) [compound 7841649, 2-methyl-N-(4-methyl-2-oxo-2H-chromen-7-yl)-1-indolinecarbothioamide] reads 3.65%.
Still for that read-out and setting: for `CC(C)c1nc(C(=O)N2CCC3(CCCN(CCc4ccccc4)C3)C2)cs1` (stereo not drawn) [compound 51157786, 2-[(2-isopropyl-1,3-thiazol-4-yl)carbonyl]-7-(2-phenylethyl)-2,7-diazaspiro[4.5]decane] the value was -5.48%.
In the case of `CC(C)Oc1ccccc1C1CC(=O)Nc2cc3c(cc21)OCCO3` (stereo not drawn) [compound 7800701, 9-(2-isopropoxyphenyl)-2,3,8,9-tetrahydro[1,4]dioxino[2,3-g]quinolin-7(6H)-one], the remaining activity at 10 µM came to 88.1%.
Still for that read-out and setting: the result for `Cc1ccc(-c2nc(CN3CCCCC3c3nccs3)c(C)o2)o1` (stereo not drawn) [compound 47561416, 1-{[5-methyl-2-(5-methyl-2-furyl)-1,3-oxazol-4-yl]methyl}-2-(1,3-thiazol-2-yl)piperidine] reads 86.3%; that for `CCc1ccc(NC(=O)c2ccc([N+](=O)[O-])o2)cc1` [compound 5351720, N-(4-ethylphenyl)-5-nitro-2-furamide], 73.5%.
Still for that read-out and setting: for `O=C(Nc1cc(C(F)(F)F)cc(C(F)(F)F)c1)c1c(F)c(F)c(F)c(F)c1F` [compound 7739721, N-[3,5-bis(trifluoromethyl)phenyl]-2,3,4,5,6-pentafluorobenzamide] the value was 98.2%; for `Cc1ccc(CSCC(=O)Nc2ccccc2C(=O)O)cc1` [compound 7723007, 2-({[(4-methylbenzyl)thio]acetyl}amino)benzoic acid], -8.22%.
For the compound `COc1cccc(-c2noc(-c3ccc(N4C[C@H]5CC[C@H]4C5)nc3)n2)c1OC` (relative stereo) [compound 75901793, (1S*,4S*)-2-{5-[3-(2,3-dimethoxyphenyl)-1,2,4-oxadiazol-5-yl]-2-pyridinyl}-2-azabicyclo[2.2.1]heptane], the “remaining DHODH activity (%) Average” value is listed as 5.94%.
Regarding `COc1ccc(C2c3[nH]c4ccccc4c3CCN2Cc2ccoc2)c(F)c1` (stereo not drawn) [compound 76026685, 1-(2-fluoro-4-methoxyphenyl)-2-(3-furylmethyl)-2,3,4,9-tetrahydro-1H-beta-carboline], the remaining activity at 10 µM amounted to 88.5%.
Same read-out and setting: for `COc1cccc(-c2noc(-c3ccc(N4CCCC(O)C4)nc3)n2)c1OC` (stereo not drawn) [compound 78928129, 1-{5-[3-(2,3-dimethoxyphenyl)-1,2,4-oxadiazol-5-yl]-2-pyridinyl}-3-piperidinol] the value was 42.3%.
Take `CCOC(=O)C1=C(C)NC2=C(C(=O)CC(c3ccco3)C2)C1c1cccs1` (stereo not drawn) [compound 7706732, ethyl 7-(2-furyl)-2-methyl-5-oxo-4-(2-thienyl)-1,4,5,6,7,8-hexahydro-3-quinolinecarboxylate]: the “remaining DHODH activity (%) Average” value is given as 95.89%.

Staying with this assay, now noted: compound at 10 µM; Supplementary Table 6, 30,000 compound library.
`CN(C)c1ccc(C=Cc2nc3ccccc3c(=O)[nH]2)cc1` [compound 5705506, 2-{2-[4-(dimethylamino)phenyl]vinyl}-4(3H)-quinazolinone]: the remaining activity at 10 µM is 82.5%.
Same read-out and setting: for `c1ccc(NN=C2CCc3ccccc3N2)cc1` [compound 5373649, 3,4-dihydro-2(1H)-quinolinone phenylhydrazone hydrochloride] the value was 101%.
In the case of `O=C(NN=CC(Br)=Cc1ccccc1)c1n[nH]c2c1CCC2` [compound 5313702, N'-(2-bromo-3-phenyl-2-propen-1-ylidene)-1,4,5,6-tetrahydrocyclopenta[c]pyrazole-3-carbohydrazide], the “remaining DHODH activity (%) Average” value is listed as 92.49%.
With `COc1ccc2c(c1)c(C=Cc1nc3ccccc3c(=O)[nH]1)c(C)n2C` [compound 5705453, 2-[2-(5-methoxy-1,2-dimethyl-1H-indol-3-yl)vinyl]-4(3H)-quinazolinone], the remaining activity at 10 µM is 66.1%.
As to `NC(=O)c1ccccc1N=Cc1cccc(Cl)c1` [compound 5321611, 2-[(3-chlorobenzylidene)amino]benzamide], the remaining activity at 10 µM stood at 97.6%.
`Cc1cccn(CC(=O)c2ccc(-c3ccccc3)cc2)c1=N` [compound 5120580, 1-(4-biphenylyl)-2-(2-imino-3-methyl-1(2H)-pyridinyl)ethanone hydrobromide]: the remaining activity at 10 µM is 19.2%.
Still for that read-out and setting: for `CC(C)(C)c1ccc(C(=O)NC(=S)Nc2cccc([N+](=O)[O-])c2)cc1` [compound 6515740, 4-tert-butyl-N-{[(3-nitrophenyl)amino]carbonothioyl}benzamide] the value was 88.9%.
Still for that read-out and setting: for `COc1ccc(C=NN2CCN(Cc3ccccc3)CC2)c(OC)c1` [compound 5783994, 4-benzyl-N-(2,4-dimethoxybenzylidene)-1-piperazinamine] the value was 101%.
`O=[N+]([O-])c1ccc2[nH]c3c(c2c1)CCCC3NC1CCN(CCc2ccccc2)CC1` (stereo not drawn) [compound 5781441, 6-nitro-N-[1-(2-phenylethyl)-4-piperidinyl]-2,3,4,9-tetrahydro-1H-carbazol-1-amine]: the remaining activity at 10 µM was determined as 59.6%.
Same read-out and setting: for `c1ccc(OCCNc2ccc3ccccc3c2)cc1` [compound 6641022, 2-naphthyl(2-phenoxyethyl)amine] the value was 66%; for `CCOc1ccc(NC(=S)NC(=O)c2ccc(C(C)(C)C)cc2)cc1` [compound 6501326, 4-tert-butyl-N-{[(4-ethoxyphenyl)amino]carbonothioyl}benzamide], 84.1%; for `Cc1cccc(Cc2cnc(NC(=O)c3ccc(Br)cc3)s2)c1` [compound 5852371, 4-bromo-N-[5-(3-methylbenzyl)-1,3-thiazol-2-yl]benzamide], 97.6%.
Same read-out and setting: for `CC1CCC(NC2CCCc3c2[nH]c2ccc([N+](=O)[O-])cc32)CC1` (stereo not drawn) [compound 5781447, N-(4-methylcyclohexyl)-6-nitro-2,3,4,9-tetrahydro-1H-carbazol-1-amine] the value was 56.8%.
On the same count and under the same terms, for `Cc1ccc2[nH]c3c(c2c1)CCCC3NCc1ccccc1` (stereo not drawn) [compound 5869604, N-benzyl-6-methyl-2,3,4,9-tetrahydro-1H-carbazol-1-amine hydrochloride] the value was 27.3%.
With `Cc1ccc2[nH]c3c(c2c1)CCCC3NC1CCCCC1` (stereo not drawn) [compound 5303009, N-cyclohexyl-6-methyl-2,3,4,9-tetrahydro-1H-carbazol-1-amine], the remaining activity at 10 µM came to 12.6%.
Take `COc1ccccc1NC(=O)C1c2ccccc2Oc2ccccc21` [compound 5867214, N-(2-methoxyphenyl)-9H-xanthene-9-carboxamide]: the remaining activity at 10 µM amounted to 99.2%.
Still for that read-out and setting: the result for `Cc1ccccc1C=Nc1ccccc1C(N)=O` [compound 5320101, 2-[(2-methylbenzylidene)amino]benzamide] reads 101%; that for `O=C(NN=Cc1ccc(Br)cc1)C1COc2ccccc2O1` (stereo not drawn) [compound 5249701, N'-(4-bromobenzylidene)-2,3-dihydro-1,4-benzodioxine-2-carbohydrazide], 100%; that for `CC(Cc1ccccc1F)NC1CCCc2c1[nH]c1ccc([N+](=O)[O-])cc21` (stereo not drawn) [compound 5781454, N-[2-(2-fluorophenyl)-1-methylethyl]-6-nitro-2,3,4,9-tetrahydro-1H-carbazol-1-amine], 55.4%.
As to `COc1ccccc1N1C(=O)C(=C2C(=O)Nc3ccc(Br)cc32)SC1=S` [compound 5284467, 5-bromo-3-[3-(2-methoxyphenyl)-4-oxo-2-thioxo-1,3-thiazolidin-5-ylidene]-1,3-dihydro-2H-indol-2-one], the “remaining DHODH activity (%) Average” value was 98.93%.
On to `COc1ccccc1CC(C)NC1CCCc2c1[nH]c1ccc([N+](=O)[O-])cc21` (stereo not drawn) [compound 5781453, N-[2-(2-methoxyphenyl)-1-methylethyl]-6-nitro-2,3,4,9-tetrahydro-1H-carbazol-1-amine], for which the remaining activity at 10 µM was found to be 52.4%.
On the same count and under the same terms, for `Brc1ccc2[nH]c3c(c2c1)CCCC3NCCc1ccccc1` (stereo not drawn) [compound 5265927, 6-bromo-N-(2-phenylethyl)-2,3,4,9-tetrahydro-1H-carbazol-1-amine hydrochloride] the value was 55.7%; for `O=C1Nc2ccccc2C1=CNC1CCCc2c1[nH]c1ccccc21` (stereo not drawn) [compound 5666718, 3-[(2,3,4,9-tetrahydro-1H-carbazol-1-ylamino)methylene]-1,3-dihydro-2H-indol-2-one], 48.5%.
`CC(C)Oc1ccc(C(=O)NC(=S)Nc2ccc(N3CCCCC3)cc2)cc1` [compound 6497060, 4-isopropoxy-N-({[4-(1-piperidinyl)phenyl]amino}carbonothioyl)benzamide]: the remaining activity at 10 µM was found to be 101%.
Still for that read-out and setting: for `O=[N+]([O-])c1ccc2[nH]c3c(c2c1)CCCC3NC1Cc2ccccc2C1` (stereo not drawn) [compound 5781444, N-(2,3-dihydro-1H-inden-2-yl)-6-nitro-2,3,4,9-tetrahydro-1H-carbazol-1-amine] the value was 57.9%.
